Biological target: human TLR7 (Homo sapiens (Human), UniProt Q9NYK1)
Assay: Reporter Gene Assay (HEK293 stably transfected with human TLR7 and NF-kB-driven luciferase reporter)
Format: cell-based
Conditions: HEK293 cells stably transfected with human TLR7 and pNifty-Luciferase; 7 hours incubation; EC50 relative to the activity of resiquimod set to 100%
Experimental: As a control assay, normal Hek293 transfected with pNifty-Luc were used. […] Bright-Glo™ Luciferase assay buffer and substrate were supplied by Promega #E263B and #E264B (assay substrate and buffer respectively). 384 well clear-bottom plates were supplied by Greiner bio-one (#789163-G) and were custom bar-coded plates.
Cells were plated at 25,000 cells/well in 384-well plates in a final volume of 50 μl of media. Cells were allowed to adhere to the plates after overnight (18 hours) culture at 37° C. and 5% CO2. Serially diluted experimental and positive control compounds were then dispensed to each well and incubated for 7 hours at 37° C. and 5% CO2. Cells stimulated with DMSO alone also serve as negative controls. After the incubation, 30 μl of the pre-mix assay buffer and substrate buffer were added to each well according to manufacturer's instructions. The luminescence signal was read on a CLIPR machine with an integration time of 20 seconds per plate.

Sequence of human TLR7 (Q9NYK1 27-1049): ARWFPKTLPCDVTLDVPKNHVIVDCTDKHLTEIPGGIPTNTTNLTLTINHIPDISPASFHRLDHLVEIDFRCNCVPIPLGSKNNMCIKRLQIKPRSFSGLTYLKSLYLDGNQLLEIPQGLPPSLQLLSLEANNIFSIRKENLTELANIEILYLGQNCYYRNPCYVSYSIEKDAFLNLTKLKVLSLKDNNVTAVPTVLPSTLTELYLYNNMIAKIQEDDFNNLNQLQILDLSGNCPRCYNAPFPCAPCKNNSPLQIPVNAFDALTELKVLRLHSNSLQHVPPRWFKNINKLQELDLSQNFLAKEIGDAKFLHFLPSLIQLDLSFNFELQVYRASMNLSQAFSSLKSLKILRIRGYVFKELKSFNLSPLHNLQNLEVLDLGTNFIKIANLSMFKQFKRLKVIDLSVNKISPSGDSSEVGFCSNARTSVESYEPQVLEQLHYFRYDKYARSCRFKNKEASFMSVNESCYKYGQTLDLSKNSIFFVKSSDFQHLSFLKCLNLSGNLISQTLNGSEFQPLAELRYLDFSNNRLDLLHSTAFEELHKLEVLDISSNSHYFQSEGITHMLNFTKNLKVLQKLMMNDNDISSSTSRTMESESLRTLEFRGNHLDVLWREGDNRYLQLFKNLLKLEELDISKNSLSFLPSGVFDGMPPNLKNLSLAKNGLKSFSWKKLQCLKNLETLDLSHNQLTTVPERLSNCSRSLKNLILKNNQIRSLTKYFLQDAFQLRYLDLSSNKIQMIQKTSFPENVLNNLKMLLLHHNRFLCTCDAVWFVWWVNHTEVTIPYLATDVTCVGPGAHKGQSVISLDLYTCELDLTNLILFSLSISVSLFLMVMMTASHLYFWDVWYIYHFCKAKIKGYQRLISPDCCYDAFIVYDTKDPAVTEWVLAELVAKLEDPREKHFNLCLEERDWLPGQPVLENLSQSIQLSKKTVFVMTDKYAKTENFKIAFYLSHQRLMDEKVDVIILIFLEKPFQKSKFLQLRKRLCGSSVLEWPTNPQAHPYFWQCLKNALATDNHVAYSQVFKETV

Row | SMILES | EC50 [µM]
1 | CCCC[C@@H](CO)Nc1nc(N)nc2ccn(Cc3ccc(CN4CCNCC4)cc3OC)c12 [Example 33, (S)-2-((2-amino-5-(2-methoxy-4-(piperazin-1-ylmethyl)benzyl)-5H-pyrrolo[3,2-d]pyrimidin-4-yl)amino)hexan-1-ol] | 0.007
2 | CCCCCNc1nc(N)nc2ccn(Cc3cc(N)ccc3OC)c12 [Example 34, 5-(5-amino-2-methoxybenzyl)-N4-pentyl-5H-pyrrolo[3,2-d]pyrimidine-2,4-diamine] | 0.001

— patent US10407431B2, “Compounds and compositions as toll-like receptor 7 agonists” (NOVARTIS AG, priority 2014, dated 2019)
